Data: patent US20250230193A1, “CYCLIC COMPOUND HAVING SELECTIVE KRAS INHIBITORY EFFECT ON HRAS AND NRAS” (CHUGAI SEIYAKU KABUSHIKI KAISHA, priority 2022, published 2025)
Where a SMILES comes first, the peptide text is derived from it. Bridges are numbered along the chain shown (N, C = ends). [ ]: non-standard residue; d: D form. The star is where a group is joined. hPhe(3-Cl-4-CF3) = N[C@@H](CCc1ccc(C(F)(F)F)c(Cl)c1)C(=O)O; NPrPhe(4-CF3) = CCCN[C@@H](Cc1ccc(C(F)(F)F)cc1)C(=O)O; NMeGly(cPent) = CN[C@H](C(=O)O)C1CCCC1; Pro(4,4-Me2) = CC1(C)CN[C@H](C(=O)O)C1; NMeD = CN[C@@H](CC(=O)O)C(=O)O; NMeL = CN[C@@H](CC(C)C)C(=O)O; Morpholide = C1CN(*)CCO1; Ac5c = NC1(C(=O)O)CCCC1; Aze = O=C(O)[C@@H]1CCN1; Sar = CNCC(=O)O

Experiments:
[1] = target: GDP-bound HRAS wild-type protein (Homo sapiens, UniProt P01112); test: Binding to HRAS by surface plasmon resonance (SPR), Single Cycle Kinetics
[2] = target: GDP-bound NRAS wild-type protein (Homo sapiens, UniProt P01111); test: Binding to NRAS by surface plasmon resonance (SPR), Single Cycle Kinetics
[3] = GDP-bound HRAS wild-type vs GDP-bound KRAS wild-type, SPR
[4] = GDP-bound NRAS wild-type vs GDP-bound KRAS wild-type, SPR

GDP-bound HRAS wild-type protein, sequence (P01112 whole entry): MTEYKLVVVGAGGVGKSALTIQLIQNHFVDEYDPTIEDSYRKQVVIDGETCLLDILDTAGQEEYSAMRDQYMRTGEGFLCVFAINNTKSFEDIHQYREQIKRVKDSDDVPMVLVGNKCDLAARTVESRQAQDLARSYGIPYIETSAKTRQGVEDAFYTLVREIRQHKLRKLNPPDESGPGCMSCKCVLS
GDP-bound NRAS wild-type protein, sequence (P01111 whole entry): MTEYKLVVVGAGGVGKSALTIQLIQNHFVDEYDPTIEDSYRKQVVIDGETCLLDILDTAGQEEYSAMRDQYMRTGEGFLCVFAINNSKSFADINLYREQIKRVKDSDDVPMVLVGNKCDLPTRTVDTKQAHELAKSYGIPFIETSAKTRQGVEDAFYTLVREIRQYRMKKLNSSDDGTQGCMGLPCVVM

Structure (SMILES)	HRAS/KRAS (ratio of KD value with respect to GDP-bound HRAS wild-type protein to KD value with respect to KRAS) ([1]; SPR)	NRAS/KRAS (ratio of KD value with respect to GDP-bound NRAS wild-type protein to KD value with respect to KRAS) ([2]; SPR)	HRAS/KRAS (ratio of KD value for HRAS to KD value for KRAS) [1, 3]	NRAS/KRAS (ratio of KD value for NRAS to KD value for KRAS) [2, 4]	also measured
CCO[C@@H]1C[C@H]2C(=O)NC3(CCC3)C(=O)N(C)[C@@H](C3CCCC3)C(=O)N(C)[C@H](C(=O)N(C)C)CC(=O)N(C)[C@@H](C)C(=O)N[C@@H]([C@@H](C)CC)C(=O)N(C)CC(=O)N(C)[C@H]3CCCCCN(C3=O)[C@@H](Cc3ccc(C(F)(F)F)cc3)C(=O)N(C)CC(=O)N[C@@H](CCc3cc(F)c(C(F)(F)F)c(F)c3)C(=O)N2C1 [PP0476]	B (a compound having 3 or more and less than 10 is denoted as B)	B (a compound having 3 or more and less than 10 is denoted as B)			
CCCN1C(=O)CN(C)C(=O)[C@@H]2CCN2C(=O)[C@H]([C@@H](C)CC)NC(=O)[C@H](CC(C)C)N(C)C(=O)C[C@@H](C(=O)N2CCOCC2)N(C)C(=O)[C@H](C2CCCC2)N(C)C(=O)C2(CCCC2)NC(=O)[C@@H]2CC(C)(C)CN2C(=O)[C@H](CCc2ccc(C(F)(F)F)c(Cl)c2)NC(=O)CN(C)C(=O)[C@@H]1Cc1ccc(C(F)(F)F)cc1 [PP0452] ([NMeL]I[Aze][Sar][NPrPhe(4-CF3)][Sar][hPhe(3-Cl-4-CF3)][Pro(4,4-Me2)][Ac5c][NMeGly(cPent)][NMeD]-Morpholide; lactam N-11)	B (a compound having 3 or more and less than 10 is denoted as B)	B (a compound having 3 or more and less than 10 is denoted as B)			
CCCN(C)C(=O)[C@@H]1CC(=O)N(C)[C@@H](CC(F)F)C(=O)N[C@@H]([C@@H](C)CC)C(=O)N(C)CC(=O)N(C)[C@H]2C/C=C\CCN(C2=O)[C@@H](Cc2ccc(C(F)(F)F)cc2)C(=O)N(C)CC(=O)N[C@@H](CCc2cc(F)c(C(F)(F)F)c(F)c2)C(=O)N2C[C@H](F)C[C@H]2C(=O)NC2(CC(C)(C)C2)C(=O)N(C)[C@@H](C2CCCC2)C(=O)N1C [PP1687]			A (a compound having 10 or more and less than 20 is denoted as A)	A (a compound having 10 or more and less than 20 is denoted as A)	
CCC[C@H]1C(=O)N[C@@H]([C@@H](C)CC)C(=O)N(C)CC(=O)N(C)[C@H]2C/C=C\CCN(C2=O)[C@@H](Cc2ccc(C)cc2)C(=O)N(C)CC(=O)N[C@@H](CCc2ccc(C(F)(F)F)c(Cl)c2)C(=O)N2C[C@H](C)C[C@H]2C(=O)NC2(CC(C)(C)C2)C(=O)N(C)[C@@H](C2CCCC2)C(=O)N(C)[C@H](C(=O)N(C)CC)CC(=O)N1C [PP1894]			A (a compound having 10 or more and less than 20 is denoted as A)	A (a compound having 10 or more and less than 20 is denoted as A)	
CCC[C@H]1C(=O)N[C@@H]([C@@H](C)CC)C(=O)N(C)CC(=O)N(C)[C@H]2C/C=C\CCN(C2=O)[C@@H](Cc2ccc(C)cc2)C(=O)N(C)CC(=O)N[C@@H](CCc2ccc(C(F)(F)F)c(Cl)c2)C(=O)N2C[C@H](OCC)C[C@H]2C(=O)NC2(CC(C)(C)C2)C(=O)N(C)[C@@H](CC(C)(C)C)C(=O)N(C)[C@H](C(=O)N(C)C)CC(=O)N1C [PP2230]					HRAS/KRAS (ratio of KD value with respect to HRAS to KD value with respect to KRAS) ([1]; SPR, GDP-bound HRAS wild-type vs GDP-bound KRAS wild-type): A (a compound having 10 or more and less than 20 is denoted as A); NRAS/KRAS (ratio of KD value with respect to NRAS to KD value with respect to KRAS) ([2]; SPR, GDP-bound NRAS wild-type vs GDP-bound KRAS wild-type): A (a compound having 10 or more and less than 20 is denoted as A)
CC[C@H](C)[C@@H]1NC(=O)[C@H](CC2CC2)N(C)C(=O)C[C@@H](C(=O)N(C)C)N(C)C(=O)[C@H](C2CCCC2)N(C)C(=O)C2(CC(C)(C)C2)NC(=O)[C@@H]2C[C@@H](F)CN2C(=O)[C@H](CCc2cc(F)c(C(F)(F)F)c(F)c2)NC(=O)CN(C)C(=O)[C@H](Cc2ccc(C)cc2)N2CC/C=C\C[C@@H](C2=O)N(C)C(=O)CN(C)C1=O [PP2804]					HRAS/KRAS (ratio of KD value with respect to GDP-bound HRAS wild-type protein to KD value with respect to KRAS) ([1]; class symbols): A (a compound having 10 or more and less than 20 is denoted as A); NRAS/KRAS (ratio of KD value with respect to GDP-bound NRAS wild-type protein to KD value with respect to KRAS) ([2]; class symbols): A (a compound having 10 or more and less than 20 is denoted as A)
